Measurements reported in patent US10392398B2, “Inhibitors of Late SV40 Factor (LSF) as cancer chemotherapeutics” (TRUSTEES OF BOSTON UNIVERSITY, priority 2010, dated 2019).
Read-outs that look alike come from different tables or passages of the source.

Key:
LSF [1] = target: T1, LSF (Homo sapiens, UniProt Q12800); assay: Electrophoretic mobility shift assay (EMSA) of LSF DNA-binding; format: biochemical; conditions: in vitro translated LSF
T1 sequence (Q12800 1-502): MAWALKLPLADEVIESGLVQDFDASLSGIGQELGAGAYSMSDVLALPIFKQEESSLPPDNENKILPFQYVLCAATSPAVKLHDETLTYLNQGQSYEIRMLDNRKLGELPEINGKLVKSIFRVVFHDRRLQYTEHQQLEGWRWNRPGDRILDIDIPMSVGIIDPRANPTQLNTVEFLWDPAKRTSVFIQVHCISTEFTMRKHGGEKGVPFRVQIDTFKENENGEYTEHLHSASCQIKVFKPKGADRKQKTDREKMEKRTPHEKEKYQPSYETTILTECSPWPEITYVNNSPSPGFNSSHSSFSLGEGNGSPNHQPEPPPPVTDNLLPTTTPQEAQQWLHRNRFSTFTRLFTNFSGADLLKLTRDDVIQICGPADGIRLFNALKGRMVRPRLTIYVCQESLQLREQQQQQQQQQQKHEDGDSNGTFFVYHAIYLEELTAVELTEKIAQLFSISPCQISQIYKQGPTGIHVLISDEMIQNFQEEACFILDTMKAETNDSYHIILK
Protocol: LSF was translated in vitro as previously described^16 for use in EMSAs. Protein was preincubated with inhibitor or DMSO and then incubated with 0.5 μg poly d(I-C) for 15 min at 4° C. in 40 mM KCl, 15 mM HEPES pH 7.9, 1 mM EDTA, 0.5 mM DTT, 5% glycerol. Finally, radiolabelled double-stranded DNA ([…]—SEQ ID NO: 5- and its complement) were added for a 30-min incubation at 30° C. Results were visualized using a PhosphorImager and quantified using ImageQuant software.

HepG3 cells = assay: TUNEL apoptosis assay, HepG3; format: cell-based; conditions: same conditions as QGY-7703
Protocol: HCC cells were plated 24 h prior to incubation with FQI1. At the indicated time points, cells were analyzed using the FragEL™ DNA fragmentation kit (Calbiochem) according to the manufacturer's protocol. Flow cytometry was performed using a FACS caliber (Becton Dickinson) and analyzed with Cell Quest software.

[2] = system: primary mouse hepatocytes; assay: Primary mouse hepatocytes, growth and toxicity; format: cell-based
Excerpt: Averages with SEM of three experiments are shown. *P<0.05, by one-tailed t-test. […] The cells were imaged separately for TUNEL-positivity and DNA at the top. Below: Merged images; green for TUNEL (Terminal deoxynucleotidyl transferase dUTP nick end labeling) staining, blue for DAPI (4′,6-diamidino-2-phenylindole) staining. […] Binucleate cells are common for adult hepatocytes.

QGY-7703 cells = assay: Cell viability GI50 (MTS), QGY-7703; format: cell-based; conditions: Homo sapiens
Protocol: QGY-7703 and A549 cells were cultured at 37° C. in 5% CO2 in DMEM (Dulbecco's modification of Eagle's Medium; Corning) supplemented with 10% Fetal Bovine Serum (FBS; Invitrogen). NIH-3T3 cells were cultured at 37° C. in 5% CO2 in DMEM supplemented with 10% Fetal Calf Serum (FCS; Atlanta Biologicals). For cell viability assays, 1,500 cells were seeded in 96-well plates and treated with FQI-34 or vehicle (DMSO) at appropriate concentrations (DMSO at 1%) after 20 hours. After 72-hour incubation with compound or vehicle, cell growth was assessed via the Promega CellTiter 96® AQueous One Solution Cell Proliferation Assay, a colorimetric method to determine the number of viable cells. 20 μL of the CellTiter 96® AQueous One Solution Reagent was added directly into cultured wells and incubated for one hour, after which the absorbance at 490 nm was read with a 96-well plate reader (Opys MR Microplate Reader). The CellTiter 96® AQueous One Solution contains an MTS tetrazolium compound which is bioreduced by cells into a colored formazan product that is soluble in tissue culture medium. The quantity of formazan product as measured by absorbance is directly proportional to the number of living cells in culture. GI50 values were determined from plots of the percentage of compound-treated cell growth to vehicle cell growth vs. compound concentration (GraphPad Prism; non-linear regression 4-parameter curve fit with variable slope).

LBP1a/b = assay: Cellular Thermal Shift Assay (CETSA), LBP1a/b; format: binding; conditions: QGY-7703 lysate, 500 μM
Protocol: (§1) Drug-target engagement was assessed using CETSA as described by Molina et al. (Monitoring Drug-Target Engagement in Cells and Tissues Using Cellular Thermal Shift Assay. Science (2013) 341, 84-87). QGY-7703 cells were cultured at 37° C. in 5% CO2 in DMEM (Dulbecco's modification of Eagle's Medium; Corning) supplemented with 10% Fetal Bovine Serum (FBS; Invitrogen). Cells were seeded into 10 cm plates and allowed to reach 60-80% confluency. After trypsinization (0.05% Trypsin-EDTA, Invitrogen), cell pellet was washed twice with ice-cold 1×PBS (137 mM NaCl, 2.7 mM KCl, 10 mM Na2HPO4, 2 mM KH2PO4, pH 7.2). Cell pellet was lysed by addition of 200 μL freshly prepared ice-cold RIPA buffer (10 mM Tris-Cl pH 8.0, 1 mM EDTA, 0.5 mM EGTA, 1% Triton X-100, 0.1% sodium deoxycholate, 0.1% SDS, 140 mM NaCl) supplemented with 1 mM Pefabloc (Sigma-Aldrich), and flash frozen in liquid nitrogen and thawed for a total of three cycles. Cell lysate was centrifuged at 20,000×g for 20 minutes to clarify. Supernatant was either treated immediately or saved at −80° C. for future use. […]
(§2) Immunoblots were quantified using Image J and graphed using GraphPad PRISM. Area-under-the-curve (AUC) for the quantified western blots were calculated with GraphPad PRISM and non-parametric t-test was calculated to determine statistical significance between the curves. […]

LSF [3] = target: T1, LSF; assay: Cellular Thermal Shift Assay (CETSA), LSF; format: binding; parameters: expressed in transfected cells
Protocol: as §1, §2

Row | SMILES | modulation of LSF DNA-binding in EMSA (LSF [1]) | TUNEL positivity of HepG3 cells (HepG3 cells) | growth consequences or toxicity in primary non-dividing mouse hepatocytes [2] | GI50 (QGY-7703 cells; 72-hour incubation, MTS, read-out: GI50 in QGY-7703 cells) [nM] | GI50 (QGY-7703 cells; Table 5, read-out: QGY-7703 GI50) [nM] | GI50 (QGY-7703 cells; Table 8, read-out: QGY-7703 GI50) [nM] | binding to LBP1a/b by CETSA (LBP1a/b) | binding to LSF by CETSA (LSF [3]; QGY-7703 lysate, 500 μM) | LSF CETSA (LSF [3]; Table 5, YES/NO)
1 | CCOc1ccccc1C1CC(=O)Nc2cc3c(cc21)OCO3 (racemic) [FQI1, 8-(2-ethoxyphenyl)-7,8-dihydro-[1,3]dioxolo[4,5-g]quinolin-6(5H)-one] | initial enhancement at low concentrations and inhibition at higher concentrations | not TUNEL-positive | No growth consequences or toxicity |  |  |  |  |  | 
2 | CCOc1cc(N(C)C)ccc1C1CC(=O)Nc2cc3c(cc21)OCO3 (stereo not drawn) [FQI-34, 8-(4-(dimethylamino)-2-ethoxyphenyl)-7,8-dihydro-[1,3]dioxolo[4,5-g]quinolin-6(5H)-one] |  |  |  | 260 | 260 | 260 | directly binds | directly binds | YES
